Measurements from paper PMC7156458, “Synthetic biology based construction of biological activity-related library of fungal decalin-containing diterpenoid pyrones” (Nature Communications, 2020).

Biological target: Aβ42 (Homo sapiens, UniProt P05067)
Assay: Th-T (thioflavin-T) assay of Aβ42 aggregation
Format: biochemical
Details: for Th-T assay plate reading, mean of three wells (Supplementary Fig. 47): source data, Ab alone and No Ab as controls

Sequence of Aβ42 (P05067 672-713): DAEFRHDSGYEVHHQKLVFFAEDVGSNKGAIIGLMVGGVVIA

In the case of `C=C1CCC2C(C)(CCC=C(C)C)C(O)CCC2(C)C1Cc1c(OC)oc(C)c(C)c1=O` (stereo not drawn) [Compound 11], the “Th-T fluorescence, mean of three wells” value (Aβ42 aggregation time course, reading M117) is reported as 3.419, the “Th-T fluorescence, mean of three wells” value (Aβ42 aggregation time course, reading M118) is reported as 3.454 and the “Th-T fluorescence, mean of three wells” value (Aβ42 aggregation time course, reading M119) is reported as 3.399. For the same compound, the “Th-T fluorescence, mean of three wells” value (Aβ42 aggregation time course, reading M120) was 3.398, the “Th-T fluorescence, mean of three wells” value (Aβ42 aggregation time course, reading M121) was 3.42 and the “Th-T fluorescence, mean of three wells” value (Aβ42 aggregation time course, reading M122) was 3.434. The “Th-T fluorescence, mean of three wells” value (Aβ42 aggregation time course, reading M123) was 3.405, the “Th-T fluorescence, mean of three wells” value (Aβ42 aggregation time course, reading M124) was 3.409 and the “Th-T fluorescence, mean of three wells” value (Aβ42 aggregation time course, reading M125) was 3.379. For the same compound, the “Th-T fluorescence, mean of three wells” value (Aβ42 aggregation time course, reading M126) was 3.403, the “Th-T fluorescence, mean of three wells” value (Aβ42 aggregation time course, reading M127) was 3.386 and the “Th-T fluorescence, mean of three wells” value (Aβ42 aggregation time course, reading M128) was 3.37. The “Th-T fluorescence, mean of three wells” value (Aβ42 aggregation time course, reading M129) was 3.334, the “Th-T fluorescence, mean of three wells” value (Aβ42 aggregation time course, reading M130) was 3.361 and the “Th-T fluorescence, mean of three wells” value (Aβ42 aggregation time course, reading M131) was 3.331. The “Th-T fluorescence, mean of three wells” value (Aβ42 aggregation time course, reading M132) was 3.363, the “Th-T fluorescence, mean of three wells” value (Aβ42 aggregation time course, reading M133) was 3.349 and the “Th-T fluorescence, mean of three wells” value (Aβ42 aggregation time course, reading M134) was 3.347. The “Th-T fluorescence, mean of three wells” value (Aβ42 aggregation time course, reading M135) was 3.342, the “Th-T fluorescence, mean of three wells” value (Aβ42 aggregation time course, reading M136) was 3.355 and the “Th-T fluorescence, mean of three wells” value (Supplementary Fig. 47, reading M137) was 3.327. The “Th-T fluorescence, mean of three wells” value (Supplementary Fig. 47, reading M138) was 3.302, the “Th-T fluorescence, mean of three wells” value (Supplementary Fig. 47, reading M139) was 3.301 and the “Th-T fluorescence, mean of three wells” value (Supplementary Fig. 47, reading M140) was 3.319. For the same compound, the “Th-T fluorescence, mean of three wells” value (Supplementary Fig. 47, reading M141) was 3.315, the “Th-T fluorescence, mean of three wells” value (Supplementary Fig. 47, reading M142) was 3.306 and the “Th-T fluorescence, mean of three wells” value (Supplementary Fig. 47, reading M143) was 3.276. The “Th-T fluorescence, mean of three wells” value (Supplementary Fig. 47, reading M144) was 3.297, the “Th-T fluorescence, mean of three wells” value (Supplementary Fig. 47, reading M145) was 3.29 and the “Th-T assay plate reading, mean of three wells (Supplementary Fig. 47)” value (shortened to “Th-T assay plate reading, mean”) (measurement M1) was 0.2852. The “Th-T assay plate reading, mean” value (measurement M2) was 0.2849, the “Th-T assay plate reading, mean” value (measurement M3) was 0.2915 and the “Th-T assay plate reading, mean” value (measurement M4) was 0.2733. The “Th-T assay plate reading, mean” value (measurement M5) was 0.2777, the “Th-T assay plate reading, mean” value (measurement M6) was 0.2762 and the “Th-T assay plate reading, mean” value (measurement M7) was 0.318. For the same compound, the “Th-T assay plate reading, mean” value (measurement M8) was 0.3144, the “Th-T assay plate reading, mean” value (measurement M9) was 0.404 and the “Th-T assay plate reading, mean” value (measurement M10) was 0.4577. The “Th-T assay plate reading, mean” value (measurement M11) was 0.5537, the “Th-T assay plate reading, mean” value (measurement M12) was 0.8108 and the “Th-T assay plate reading, mean” value (measurement M13) was 1.388. The “Th-T assay plate reading, mean” value (measurement M14) was 1.929, the “Th-T assay plate reading, mean” value (measurement M15) was 2.27 and the “Th-T assay plate reading, mean” value (measurement M16) was 2.506. The “Th-T fluorescence, mean of three wells” value (reading M17, Supplementary Fig. 47 source data) was 2.688, the “Th-T fluorescence, mean of three wells” value (time-course reading M97, Supplementary Fig. 47 source data) was 3.56 and the “Th-T fluorescence, mean of three wells” value (time-course reading M98, Supplementary Fig. 47 source data) was 3.55. The “Th-T fluorescence, mean of three wells” value (time-course reading M99, Supplementary Fig. 47 source data) was 3.504, the “Th-T fluorescence, mean of three wells” value (time-course reading M100, Supplementary Fig. 47 source data) was 3.536 and the “Th-T fluorescence, mean of three wells” value (time-course reading M101, Supplementary Fig. 47 source data) was 3.529. For the same compound, the “Th-T fluorescence, mean of three wells” value (time-course reading M102, Supplementary Fig. 47 source data) was 3.494, the “Th-T fluorescence, mean of three wells” value (time-course reading M103, Supplementary Fig. 47 source data) was 3.477 and the “Th-T fluorescence, mean of three wells” value (time-course reading M104, Supplementary Fig. 47 source data) was 3.513. The “Th-T fluorescence, mean of three wells” value (time-course reading M105, Supplementary Fig. 47 source data) was 3.503, the “Th-T fluorescence, mean of three wells” value (time-course reading M106, Supplementary Fig. 47 source data) was 3.461 and the “Th-T fluorescence, mean of three wells” value (time-course reading M107, Supplementary Fig. 47 source data) was 3.469. The “Th-T fluorescence, mean of three wells” value (time-course reading M108, Supplementary Fig. 47 source data) was 3.473, the “Th-T fluorescence, mean of three wells” value (time-course reading M109, Supplementary Fig. 47 source data) was 3.5 and the “Th-T fluorescence, mean of three wells” value (time-course reading M110, Supplementary Fig. 47 source data) was 3.498. The “Th-T fluorescence, mean of three wells” value (time-course reading M111, Supplementary Fig. 47 source data) was 3.4993, the “Th-T fluorescence, mean of three wells” value (time-course reading M112, Supplementary Fig. 47 source data) was 3.484 and the “Th-T fluorescence, mean of three wells” value (time-course reading M113, Supplementary Fig. 47 source data) was 3.437. For the same compound, the “Th-T fluorescence, mean of three wells” value (time-course reading M114, Supplementary Fig. 47 source data) was 3.447, the “Th-T fluorescence, mean of three wells” value (time-course reading M115, Supplementary Fig. 47 source data) was 3.426 and the “Th-T fluorescence, mean of three wells” value (time-course reading M116, Supplementary Fig. 47 source data) was 3.43.
